Measurements from US20100138947A1, “Method for Producing Stem Cells or Stel Cell-Like Cells from Mammalian Embryos” (priority 2005, published 2010).

What was measured:
[1] = system: Bovine D7.5 embryos at the blastocyst stage; test: Culture of crushed whole bovine blastocysts on MEF feeder layer with 5′-azacytidine (primary and passaged outgrowths); assay type: cell-based
Protocol: Bovine D7.5 embryos at the blastocyst stage were crushed and depressed into mouse embryonic feeder (MEF) layers, using fine-tipped glass micropipettes or Ultra-fine needle insulin syringe, and cultured in alpha-MEM medium in presence of bFGF, hEGF, ITS, hrLIF, 2-beta-ME, Glutamax, NEAA and 20% FCS. On the same day or on the following day the media was replaced with fresh media containing (treated group) or not containing (untreated group) 5 μM 5′-azacytidine. The media in each group was changed every 3 days.
After seven to nine days, non-treated and treated “squashed” whole embryos developed morphologically distinguishable primary embryonal outgrowths.
These cell colonies reached confluence in 14-21 days, depending on the number of pieces that were placed in the dish. The growing colonies which developed into confluent monolayers expressed marker of pluripotency, such as Oct4.

[2] = system: mouse pre-implantation embryos (129sv x OG2 Oct4-EGFP); test: Isolation of ES-like cells from mouse morula/blastocysts pre-treated with 5-aza-cytidine (Oct4-EGFP reporter); assay type: cell-based; details: 1 μM for 24 h pre-treatment
Protocol: Pre-pubertal (5-6 week old) 129sv females were super-ovulated using a routine protocol (1 IU PMSG and HCG injected i.p. 48h apart) before mating with OG2 males. […] The OG2 males, used as studs for mating, were C57/B16 strain and transgenic for an Oct4-EGFP construct. All pluripotent cells from these mice express GFP and this property was exploited in this study with GFP being used as a fluorescent marker to facilitate the identification of ESCs once derived. Zygotes were collected from the oviduct of humanely killed female mice. Cumulus cells were removed from zygotes by treatment with Hyaluronidase (300 IU/ml) in KSOM medium (Chemicon). The zygotes were carefully washed to remove hyaluronidase and transferred to a fresh dish with culture drops in a 37° C. incubator and allowed to develop to the morula/blastocyst stage. Treatment of Morula/Blastocyst with 1 μM of 5-aza-cytidine. Morula/blastocysts were cultured in the KSOM culture drops supplemented with 1 μM 5-aza-cytidine for 24 hr. F1 (CBA/C57) MEF's were used as a feeder layer to facilitate attachment of embryos and subsequent isolation and support of ESCs. MEF's were inactivated by treatment with mitomycin C (10 μg/ml) for 2.5 hr in the 37° C. incubator and plated at the rate of 3×10^5 cells/ml per 6 cm dish. […]

Structure (SMILES): Nc1ncn([C@@H]2O[C@H](CO)[C@@H](O)[C@H]2O)c(=O)n1 [5′-azacytidine, 5-azacytidine]
- Cell composition/morphology of primary embryonal outgrowth (treated outgrowth, TRO) ([1]; 5 μM, after seven to nine days of culture, untreated outgrowths contained pluripotent, trophoblast and primitive endoderm cells): consisting only of cells with morphology, characteristic of bovine ES-like cells
- Expression of markers of pluripotency Oct4, Rex1 and SSEA-1 in TRO outgrowths ([1]; 5 μM, in control outgrowths only the PC part expressed the markers): all the cells expressed these markers
- Diameter of TRO outgrowths ([1]; 5 μM, over the next 9-12 days, without any changes in morphology): about 2 cm
- Same effects on primary and passaged cultures at reduced concentration ([1]; concentration reduced to below 2.5 μM): not observed
- Time for passaged colonies to reach confluence ([1]; passaged TRO in the presence of 5′-azacytidine, depends on number of pieces in the dish): 14 to 21 days
- Colony formation of passaged TRO outgrowths ([1]; primary TRO cultured 14-21 days, split into 600-800 μm pieces, passaged onto fresh feeder layer, cultured in the presence of 5′-azacytidine): able to form colonies of cells with uniform morphology, characteristic of bovine ES-like cells
- Expression of GFP transgene under control of Oct4 in putative ESCs ([2]; then 0.1 μM in modified ESC medium): expressed a GFP transgene
- Formation of ESC-like colonies from embryonal explants ([2]; then 0.1 μM in modified ESC medium on feeder layer, 8-10 days of culture): colonies of cells resembling ESCs were observed
